IC50 and Ratio IC50 data for 2 compounds are collected here from ChEMBL document CHEMBL4130583, “Artocarmins G-M, Prenylated 4-Chromenones from the Stems of Artocarpus rigida and Their Tyrosinase Inhibitory Activities” (J Nat Prod, 2017).

pIC50: −log10 of the molar value.

In test [1] the target is T1, Tyrosinase (Homo sapiens, UniProt P14679).
T1 sequence (P14679 whole entry): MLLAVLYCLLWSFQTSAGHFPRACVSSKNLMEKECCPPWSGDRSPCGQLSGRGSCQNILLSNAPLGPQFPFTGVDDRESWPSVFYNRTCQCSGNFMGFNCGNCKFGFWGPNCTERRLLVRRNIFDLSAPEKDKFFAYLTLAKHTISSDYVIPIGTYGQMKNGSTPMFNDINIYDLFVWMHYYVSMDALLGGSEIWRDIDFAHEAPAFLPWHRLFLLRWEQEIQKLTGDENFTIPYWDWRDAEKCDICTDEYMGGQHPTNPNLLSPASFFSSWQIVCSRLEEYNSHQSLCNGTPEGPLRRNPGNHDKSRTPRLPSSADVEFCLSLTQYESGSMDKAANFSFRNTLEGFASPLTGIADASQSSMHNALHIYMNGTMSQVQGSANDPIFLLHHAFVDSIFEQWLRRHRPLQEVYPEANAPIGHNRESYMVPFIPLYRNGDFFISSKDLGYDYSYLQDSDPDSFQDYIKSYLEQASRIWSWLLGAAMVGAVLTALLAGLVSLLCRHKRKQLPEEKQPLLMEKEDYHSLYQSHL
The test is described as follows: Inhibition of tyrosinase (unknown origin) using L-dihydroxyphenylalanine as substrate preincubated for 30 mins followed by substrate addition measured for 7 mins by spectrophotometric analysis.

Test [2] addresses T2, Tyrosinase (Homo sapiens) (UniProt P14679).
T2 sequence (whole entry): T1 sequence (P14679 whole entry)
The test is described as follows: Potency index, ratio of kojic acid IC50 to compound IC50 for tyrosinase (unknown origin).

One may read the pIC50 as the negative decadic logarithm of the IC50, by convention in mol/L. Take `COc1c(-c2oc3cc(O)cc(O)c3c(=O)c2CC=C(C)C)cc(O)c(O)c1CC=C(C)C`: in test [1], the pIC50 is 4.34.
Consider `O=c1cc(-c2ccc(O)cc2O)oc2cc(O)cc(O)c12` [NORARTOCARPETIN], for which, in test [1], the pIC50 is 7.64. In test [2], the Ratio IC50 is 1900.
